Where two headings read alike, the source gives them in different places.
Tests used:
[1] = system: antibodies of patients infected by the AIDS viruses; details: cited from earlier work
[2] = system: Antibodies to HIV-1; experiment: ELISA, relative performance of cyclic and non-cyclic HIV-1 peptides at serum dilutions (optical density); type: binding, human
Protocol: Table 4 is provided to illustrate the sensitivity of cyclic versus non cyclic peptides in the ELISA test by comparing the results of some sera at various dilutions.
(§1) Each well of the microtiter plate is saturated with 100 μl of a solution containing a peptide or mixture of peptides (5 μg/ml) and left overnight. The wells are emptied and washed twice with a washing buffer (Tris, 0.043M; NaCl, 0.5M; thimerosal, 0.01% w/v; Tween 20, 0.05% v/v; pH7.4). The wells are then saturated with 0.35 ml of washing buffer for 1 hr. at 37° C. and washed once with the same buffer. Serum samples to be analyzed are diluted with specimen buffer (washing buffer plus casein, 0.05% w/v). The wells are rinsed with washing buffer prior to the addition of the diluted serum sample (0.1 ml). These are left to incubate for 1 hr. at room temperature. The wells are then emptied, washed twice rapidly and then once for two minutes with washing buffer. […] The wells are then emptied and washed twice rapidly with washing buffer and then five times in which the buffer was in contact with the well 2 minutes per washing. The substrate solution (3,3', 5,5'-tetramethylbenzidine, 8 mg per ml of DMSO) is diluted with 100 volumes 0.1M citrate-acetate buffer, pH 5.6 containing 0.1% v/v of 30% H2 O2 and added to each well (0.1 ml per well). After 10 minutes the contents of each well is treated with 0.1 ml 2N H2 SO4 and the optical density read at 450 nm. All determinations are done in duplicate.

[3] = system: Antibodies to HIV-1; experiment: ELISA with peptide or peptide mixture as antigen, identifying HIV-1 positive sera; type: binding, human; details: single peptide, known HIV-1 positive sera, Table 3
Protocol: According to this test a peptide or a peptide mixture of the present invention is adsorbed onto the wells of a microtiter plate. The wells are then treated with sera to be tested. After washing, anti-human IgG labeled with peroxidase is added to the wells. The determination of the peroxidase is performed with a corresponding substrate, e.g. with o-phenylene diamine. Also in this procedure the peroxidase can be exchanged by another label, e.g. by a radioactive or fluorescence label.
as §1

[4] = serum specimen 87V103, dilution 1/50
[5] = serum specimen 1428, dilution 1/50
[6] = serum specimen M-5, dilution 1/50
[7] = serum specimen M-5, dilution 1/100
[8] = serum specimen M-5, dilution 1/200
[9] = serum specimen M-5, dilution 1/400
[10] = serum specimen M-5, dilution 1/800
[11] = serum specimen M-7, dilution 1/50
[12] = serum specimen M-7, dilution 1/100
[13] = serum specimen M-7, dilution 1/200
[14] = serum specimen M-7, dilution 1/400
[15] = serum specimen M-7, dilution 1/800
[16] = serum specimen M-8, dilution 1/50
[17] = serum specimen M-8, dilution 1/100
[18] = serum specimen M-8, dilution 1/200
[19] = serum specimen M-8, dilution 1/400
[20] = serum specimen M-8, dilution 1/800
[21] = serum specimen M-16, dilution 1/50
[22] = serum specimen M-16, dilution 1/100
[23] = serum specimen M-16, dilution 1/200
[24] = serum specimen M-16, dilution 1/400
[25] = serum specimen M-16, dilution 1/800

Substance | ELISA optical density [2, 4] | ELISA optical density [2, 5] | ELISA optical density [2, 6] | ELISA optical density [2, 7] | ELISA optical density [2, 8] | ELISA optical density [2, 9] | ELISA optical density [2, 10] | ELISA optical density [2, 11] | ELISA optical density [2, 12] | ELISA optical density [2, 13] | ELISA optical density [2, 14] | ELISA optical density [2, 15] | ELISA optical density [2, 16] | ELISA optical density [2, 17] | ELISA optical density [2, 18] | ELISA optical density [2, 19] | ELISA optical density [2, 20] | ELISA optical density [2, 21] | ELISA optical density [2, 22] | ELISA optical density [2, 23] | other results
12-amino acid sequence (600-611): 12-amino acid sequence 600-611 from gp 41 (HIV-1), Gnann et al. | – | – | – | – | – | – | – | – | – | – | – | – | – | – | – | – | – | – | – | – | positive sera detected ([1]; Center for Disease Control, Atlanta): 78 out of 79; positive sera detected ([1]; Gnann et al., Journal of Virology 1987): 22 out of 22; HIV-1-infected patients reactive ([1]; J. Infect. Dis. 156, 1987, patients from the United States): 131 out of 132
NH2 -GCSGKLICTTAVPWNAS-COOH (H-GCSGKLICTTAVPWNAS-OH; cysteine pairing not given here) [Peptide 77, gp 41 604-620] | 0.000 OPTICAL DENSITY UNITS | 0.926 OPTICAL DENSITY UNITS | 1.719 OPTICAL DENSITY UNITS | 1.459 OPTICAL DENSITY UNITS | 1.248 OPTICAL DENSITY UNITS | 0.959 OPTICAL DENSITY UNITS | 0.057 OPTICAL DENSITY UNITS | 0.142 OPTICAL DENSITY UNITS | 0.025 OPTICAL DENSITY UNITS | 0.007 OPTICAL DENSITY UNITS | 0.001 OPTICAL DENSITY UNITS | 0.000 OPTICAL DENSITY UNITS | 0.795 OPTICAL DENSITY UNITS | 0.507 OPTICAL DENSITY UNITS | 0.376 OPTICAL DENSITY UNITS | 0.209 OPTICAL DENSITY UNITS | 0.062 OPTICAL DENSITY UNITS | 1.219 OPTICAL DENSITY UNITS | 0.962 OPTICAL DENSITY UNITS | 0.613 OPTICAL DENSITY UNITS | ELISA optical density [2, 24]: 0.301 OPTICAL DENSITY UNITS; ELISA optical density [2, 25]: 0.205 OPTICAL DENSITY UNITS; % Positive Sera Correctly Identified [3]: 100%
NH2 -RILAVERYLKDQQLLGIWGCSGKLICTTAVPWNAS-COOH [Peptide 87] | 0.005 OPTICAL DENSITY UNITS | 1.463 OPTICAL DENSITY UNITS | 1.809 OPTICAL DENSITY UNITS | 1.219 OPTICAL DENSITY UNITS | 1.513 OPTICAL DENSITY UNITS | 1.418 OPTICAL DENSITY UNITS | 1.012 OPTICAL DENSITY UNITS | 1.504 OPTICAL DENSITY UNITS | 1.329 OPTICAL DENSITY UNITS | 1.184 OPTICAL DENSITY UNITS | 0.923 OPTICAL DENSITY UNITS | 0.571 OPTICAL DENSITY UNITS | 1.390 OPTICAL DENSITY UNITS | 1.087 OPTICAL DENSITY UNITS | 0.883 OPTICAL DENSITY UNITS | 0.593 OPTICAL DENSITY UNITS | 0.240 OPTICAL DENSITY UNITS | 1.846 OPTICAL DENSITY UNITS | 1.784 OPTICAL DENSITY UNITS | 1.740 OPTICAL DENSITY UNITS | ELISA optical density [2, 24]: 1.634 OPTICAL DENSITY UNITS; ELISA optical density [2, 25]: 1.537 OPTICAL DENSITY UNITS; % Positive Sera Correctly Identified [3]: 99%
SGKLIC | – | – | – | – | – | – | – | – | – | – | – | – | – | – | – | – | – | – | – | – | immunoreactivity with HIV-1 positive sera ([1]; Gnann et al., 22 HIV-1 positive sera): not immunoreactive with any of the 22 HIV-1 positive sera tested
SGKLICTTAVPWNAS [short synthetic peptide covering residues 606 to 620 of gp 41 (HIV-1), Ser. No. 120,027] | – | – | – | – | – | – | – | – | – | – | – | – | – | – | – | – | – | – | – | – | specificity ([1]; U.S. Ser. No. 120,027, seronegative specimens correctly identified): 63/63; sensitivity ([1]; U.S. Ser. No. 120,027, six of 57 confirmed positive not detected): 89%

From patent US6218102A, “Synthetic peptides and mixtures thereof for detecting HIV antibodies” (priority 1988, dated 2001)
